Assays:
morningglory [1] = test: Test A pre-/postemergence herbicide test; assay type: in vivo, Ipomoea spp.
Source text: (§1) Seeds of plant species selected from barnyardgrass (Echinochloa crus-galli (L.) Beauv.), downy bromegrass (Bromus tectorum L.), large crabgrass (Digitaria sanguinalis (L.) Scop.), giant foxtail (Setaria faberi Herrm.), morningglory (Ipomoea spp.), redroot pigweed (Amaranthus retroflexus L.) and velvetleaf (Abutilon theophrasti Medik.) were planted into a sandy loam soil and treated preemergence with a directed soil spray using test chemicals formulated in a non-phytotoxic solvent mixture which included a surfactant. At the same time plants selected from these species were also treated postemergence by spraying to runoff with test chemicals formulated.
(§2) Plants ranged in height from 2 to 10 cm and were in the one- to two-leaf stage for the postemergence treatment. Treated plants and untreated controls were maintained in a greenhouse for approximately ten days, after which time all treated plants were compared to untreated controls and visually evaluated for injury. Plant response ratings, summarized in Table A, are based on a 0 to 100 scale where 0 is no effect and 100 is complete control. A dash (-) response means no test results.

large crabgrass [2] = test: Test A pre-/postemergence herbicide test; assay type: in vivo, Digitaria sanguinalis
Source text: as §1, §2

redroot pigweed = test: Test A pre-/postemergence herbicide test; assay type: in vivo, Amaranthus retroflexus
Source text: as §1, §2

velvetleaf [3] = test: Test A pre-/postemergence herbicide test; assay type: in vivo, Abutilon theophrasti
Source text: as §1, §2

giant foxtail [4] = test: Test A pre-/postemergence herbicide test; assay type: in vivo, Setaria faberi
Source text: as §1, §2

barnyardgrass [5] = test: Test A pre-/postemergence herbicide test; assay type: in vivo, Echinochloa crus-galli
Source text: as §1, §2

giant foxtail [6] = test: Test B pre-/postemergence herbicide test; assay type: in vivo, Setaria faberi
Source text: (§3) Seeds selected from barnyardgrass (Echinochloa crus-galli (L.) Beauv.), Surinam grass (Urochloa decumbens (Staph) R. D. Webster, previously named Brachiaria decumbens Stapf), cocklebur (Xanthium strumarium L.), corn (Zea mays L.), large crabgrass (Digitaria sanguinalis (L.) Scop.), giant foxtail (Setaria faberi Herim.), lambsquarters (Chenopodium album L.), morningglory (Ipomoea coccinea L.), pigweed (Amaranthus retroflexus L.), rice (Oryza sativa L.) and velvetleaf (Abutilon theophrasti Medik.) were planted and treated preemergence with test chemicals formulated in a non-phytotoxic solvent mixture which included a surfactant.
(§4) At the same time, plants selected from these crop and weed species and also blackgrass (Alopecurus myosuroides Huds.), wheat (Triticum aestivum L.) and wild oat (Avena fatua L.) were treated with postemergence applications of test chemicals formulated in the same manner. Plants ranged in height from 2 to 18 cm (1- to 4-leaf stage) for postemergence treatments. Plant species in the flooded paddy test consisted of rice (Oryza sativa L.), small flower umbrella sedge (Cyperus difformis L.), ducksalad (Heteranthera limosa (Sw.) Willd.) and barnyardgrass (Echinochloa crus-galli (L.) Beauv.) grown to the 2-leaf stage for testing. Treated plants and controls were maintained in a greenhouse for 13 to 15 days, after which time all species were compared to controls and visually evaluated. Plant response ratings, summarized in Table B, are based on a scale of 0 to 100 where 0 is no effect and 100 is complete control. A dash (-) response means no test result.

pigweed = test: Test B pre-/postemergence herbicide test; assay type: in vivo, Amaranthus retroflexus
Source text: as §3, §4

corn = test: Test B pre-/postemergence herbicide test; assay type: in vivo, Zea mays
Source text: as §3, §4

[7] = system: small flower umbrella sedge; test: Test B flooded paddy test; assay type: in vivo, Cyperus difformis; details: 125 g ai/ha, scale 0 to 100 (0 no effect, 100 complete control)
Description: as §4

lambsquarters = test: Test B pre-/postemergence herbicide test; assay type: in vivo, Chenopodium album
Source text: as §3, §4

wheat = test: Test B postemergence herbicide test; assay type: in vivo, Triticum aestivum; design: key to Wheat plant response rating: 0 = no effect, 100 = complete control
Description: as §4

wild oat = test: Test B postemergence herbicide test; assay type: in vivo, Avena fatua
Description: as §4

Surinam grass = test: Test B pre-/postemergence herbicide test; assay type: in vivo, Urochloa decumbens
Source text: as §3, §4

barnyardgrass [8] = test: Test B pre-/postemergence herbicide test; assay type: in vivo, Echinochloa crus-galli; details: Postemergence, scale 0 (no effect) to 100 (complete control)
Source text: as §3, §4

cocklebur = test: Test B pre-/postemergence herbicide test; assay type: in vivo, Xanthium strumarium
Source text: as §3, §4

blackgrass = test: Test B postemergence herbicide test; assay type: in vivo, Alopecurus myosuroides
Description: as §4

rice = test: Test B flooded paddy test; assay type: in vivo, Oryza sativa; details: 125 g ai/ha, scale 0 to 100 (0 no effect, 100 complete control)
Description: as §4

large crabgrass [9] = test: Test B pre-/postemergence herbicide test; assay type: in vivo, Digitaria sanguinalis
Source text: as §3, §4

velvetleaf [10] = test: Test B pre-/postemergence herbicide test; assay type: in vivo, Abutilon theophrasti
Source text: as §3, §4

morningglory [11] = test: Test B pre-/postemergence herbicide test; assay type: in vivo, Ipomoea coccinea
Source text: as §3, §4

barnyardgrass [12] = test: Test B flooded paddy test; assay type: in vivo, Echinochloa crus-galli; details: 125 g ai/ha, scale 0 to 100 (0 no effect, 100 complete control)
Description: as §4

[13] = Postemergence, 250 g ai/ha, 0 to 100 scale, 0 no effect, 100 complete control
[14] = Postemergence, 1000 g ai/ha, 0 to 100 scale, 0 no effect, 100 complete control
[15] = Preemergence, 1000 g ai/ha, visual rating, 0 to 100 scale (0 no effect, 100 complete control)
[16] = preemergence, 250 g ai/ha, visual injury, 0 to 100 scale (0 no effect, 100 complete control)
[17] = Postemergence, 500 g ai/ha, 0 to 100 scale, 0 no effect, 100 complete control
[18] = Postemergence, 2000 g ai/ha, 0 to 100 scale, 0 no effect, 100 complete control
[19] = Preemergence, 500 g ai/ha, visual rating, 0 to 100 scale (0 no effect, 100 complete control)
[20] = Preemergence, 2000 g ai/ha, visual rating, 0 to 100 scale (0 no effect, 100 complete control)
[21] = Postemergence, 500 g ai/ha, scale 0 (no effect) to 100 (complete control)
[22] = postemergence, 125 g ai/ha, scale 0 to 100
[23] = Postemergence, 125 g ai/ha, 0 to 100 scale, 0 no effect, 100 complete control
[24] = preemergence, 125 g ai/ha, visual injury, 0 to 100 scale (0 no effect, 100 complete control)
[25] = preemergence, 500 g ai/ha, visual injury, 0 to 100 scale (0 no effect, 100 complete control)

C=Cn1nc(C(C)(C)C)cc1C(=O)Nc1cccc(C(=O)NC2CC2)c1 [Compound 39]
55: Pigweed plant response rating (redroot pigweed; [16]) | Plant response rating, Barnyardgrass (barnyardgrass [5]; [14])
85: Crabgrass, Large plant response rating (large crabgrass [2]; [15])
35: Plant response rating, Crabgrass, Large (large crabgrass [2]; [14]) | Crabgrass, Large plant response rating (large crabgrass [2]; [16])
75: Plant response rating, Pigweed (redroot pigweed; [14])
0: Morningglory plant response rating (morningglory [1]; [13]) | Plant response rating, Morningglory (morningglory [1]; [14]) | Morningglory plant response rating (morningglory [1]; [16])
70: Pigweed plant response rating (redroot pigweed; [13])
100: Pigweed plant response rating (redroot pigweed; [15])
20: Morningglory plant response rating (morningglory [1]; [15]) | Velvetleaf plant response rating (velvetleaf [3]; [15]) | Foxtail, Giant plant response rating (giant foxtail [4]; [16])
10: Crabgrass, Large plant response rating (large crabgrass [2]; [13]) | Velvetleaf plant response rating (velvetleaf [3]; [13]) | Plant response rating, Velvetleaf (velvetleaf [3]; [14]) | Velvetleaf plant response rating (velvetleaf [3]; [16]) | Foxtail, Giant plant response rating (giant foxtail [4]; [13]) | Barnyardgrass plant response rating (barnyardgrass [5]; [13])
45: Plant response rating, Foxtail, Giant (giant foxtail [4]; [14])
15: Barnyardgrass plant response rating (barnyardgrass [5]; [16])
25: Barnyardgrass plant response rating (barnyardgrass [5]; [15])
40: Foxtail, Giant plant response rating (giant foxtail [4]; [15])

Cn1nc(C(C)(C)C)cc1C(=O)Nc1cccc2c1CCC2=NO [Compound 111]
10: Crabgrass, Large plant response rating (large crabgrass [2]; [17]) | Plant response rating, Crabgrass, Large (large crabgrass [2]; [18]) | Plant response rating, Pigweed (redroot pigweed; [18]) | Pigweed plant response rating (redroot pigweed; [19]) | Pigweed plant response rating (redroot pigweed; [20]) | Barnyardgrass plant response rating (barnyardgrass [5]; [20])
75: Foxtail, Giant plant response rating (giant foxtail [4]; [20])
30: Crabgrass, Large plant response rating (large crabgrass [2]; [20])
45: Foxtail, Giant plant response rating (giant foxtail [4]; [19])
5: Morningglory plant response rating (morningglory [1]; [17]) | Pigweed plant response rating (redroot pigweed; [17])
0: Plant response rating, Morningglory (morningglory [1]; [18]) | Morningglory plant response rating (morningglory [1]; [19]) | Morningglory plant response rating (morningglory [1]; [20]) | Velvetleaf plant response rating (velvetleaf [3]; [17]) | Plant response rating, Velvetleaf (velvetleaf [3]; [18]) | Velvetleaf plant response rating (velvetleaf [3]; [19]) | Velvetleaf plant response rating (velvetleaf [3]; [20]) | Foxtail, Giant plant response rating (giant foxtail [4]; [17]) | Plant response rating, Foxtail, Giant (giant foxtail [4]; [18]) | Barnyardgrass plant response rating (barnyardgrass [5]; [17]) | Plant response rating, Barnyardgrass (barnyardgrass [5]; [18]) | Barnyardgrass plant response rating (barnyardgrass [5]; [19])
25: Crabgrass, Large plant response rating (large crabgrass [2]; [19])

CCN(CC)C(=O)c1cccc(NC(=O)c2nn(C(C)(C)C)nc2C)n1 [Compound 440]
0: Foxtail, Giant plant response rating (giant foxtail [6]; [21]) | Foxtail, Giant plant response rating (giant foxtail [6]; [22]) | Pigweed plant response rating (pigweed; [22]) | Corn plant response rating (corn; [22]) | Sedge, Umbrella plant response rating [7] | Lambsquarters plant response rating (lambsquarters; [22]) | Wheat plant response rating (wheat; 500 g ai/ha, scale 0 to 100, 0 no effect, 100 complete control, preemergence) | Wheat plant response rating (wheat; [21]) | Wheat plant response rating (wheat; [22]) | Surinam Grass plant response rating (Surinam grass; [22]) | Barnyardgrass plant response rating (barnyardgrass [8]; 125 g ai/ha) | Barnyardgrass plant response rating (barnyardgrass [8]; 500 g ai/ha) | Cocklebur plant response rating (cocklebur; [21]) | Cocklebur plant response rating (cocklebur; [22]) | Rice plant response rating (rice) | Crabgrass, Large plant response rating (large crabgrass [9]; [22]) | Velvetleaf plant response rating (velvetleaf [10]; [21]) | Velvetleaf plant response rating (velvetleaf [10]; [22]) | Morningglory plant response rating (morningglory [11]; [22]) | Barnyardgrass plant response rating (barnyardgrass [12])
10: Pigweed plant response rating (pigweed; [21]) | Lambsquarters plant response rating (lambsquarters; [21]) | Surinam Grass plant response rating (Surinam grass; [21]) | Crabgrass, Large plant response rating (large crabgrass [9]; [21])
20: Corn plant response rating (corn; [21]) | Oat, Wild plant response rating (wild oat; [22]) | Blackgrass plant response rating (blackgrass; [21]) | Blackgrass plant response rating (blackgrass; [22]) | Morningglory plant response rating (morningglory [11]; [21])
30: Oat, Wild plant response rating (wild oat; [21])

C=Cn1nc(C(C)(C)C)cc1C(=O)Nc1cccc(C(=O)NCCCl)c1 [Compound 38]
50: Pigweed plant response rating (redroot pigweed; [23]) | Foxtail, Giant plant response rating (giant foxtail [4]; [23])
5: Morningglory plant response rating (morningglory [1]; [24]) | Velvetleaf plant response rating (velvetleaf [3]; [19]) | Barnyardgrass plant response rating (barnyardgrass [5]; [19])
40: Barnyardgrass plant response rating (barnyardgrass [5]; [23])
30: Crabgrass, Large plant response rating (large crabgrass [2]; [23])
20: Plant response rating, Velvetleaf (velvetleaf [3]; [17])
60: Plant response rating, Crabgrass, Large (large crabgrass [2]; [17]) | Plant response rating, Foxtail, Giant (giant foxtail [4]; [17])
70: Plant response rating, Pigweed (redroot pigweed; [17])
0: Morningglory plant response rating (morningglory [1]; [23]) | Plant response rating, Morningglory (morningglory [1]; [17]) | Crabgrass, Large plant response rating (large crabgrass [2]; [24]) | Pigweed plant response rating (redroot pigweed; [19]) | Pigweed plant response rating (redroot pigweed; [24]) | Velvetleaf plant response rating (velvetleaf [3]; [24]) | Foxtail, Giant plant response rating (giant foxtail [4]; [19]) | Foxtail, Giant plant response rating (giant foxtail [4]; [24]) | Barnyardgrass plant response rating (barnyardgrass [5]; [24])
55: Plant response rating, Barnyardgrass (barnyardgrass [5]; [17])
10: Morningglory plant response rating (morningglory [1]; [19]) | Crabgrass, Large plant response rating (large crabgrass [2]; [19]) | Velvetleaf plant response rating (velvetleaf [3]; [23])

CCc1nn(C(C)(C)C)cc1C(=S)Nc1cc(C(=S)N(C)C)ccc1F [Compound 453]
0: Morningglory plant response rating (morningglory [1]; [24]) | Morningglory plant response rating (morningglory [1]; [25]) | Velvetleaf plant response rating (velvetleaf [3]; [24]) | Velvetleaf plant response rating (velvetleaf [3]; [25]) | Foxtail, Giant plant response rating (giant foxtail [4]; [24]) | Foxtail, Giant plant response rating (giant foxtail [4]; [25])
5: Velvetleaf plant response rating (velvetleaf [3]; [23])
10: Morningglory plant response rating (morningglory [1]; [23]) | Morningglory plant response rating (morningglory [1]; [17]) | Crabgrass, Large plant response rating (large crabgrass [2]; [23]) | Crabgrass, Large plant response rating (large crabgrass [2]; [17]) | Crabgrass, Large plant response rating (large crabgrass [2]; [24]) | Pigweed plant response rating (redroot pigweed; [23]) | Pigweed plant response rating (redroot pigweed; [24]) | Pigweed plant response rating (redroot pigweed; [25]) | Velvetleaf plant response rating (velvetleaf [3]; [17]) | Foxtail, Giant plant response rating (giant foxtail [4]; [23]) | Foxtail, Giant plant response rating (giant foxtail [4]; [17]) | Barnyardgrass plant response rating (barnyardgrass [5]; [23])
15: Crabgrass, Large plant response rating (large crabgrass [2]; [25]) | Barnyardgrass plant response rating (barnyardgrass [5]; [17])
20: Pigweed plant response rating (redroot pigweed; [17]) | Barnyardgrass plant response rating (barnyardgrass [5]; [24])
45: Barnyardgrass plant response rating (barnyardgrass [5]; [25])

From patent US20060069132A1, “Azolecarboxamide herbicides” (priority 2004, published 2006)
